Tests used:
[1] = test system: Smn protein; test: Smn protein assay (Smn HTRF) in cultured cells; type: cell-based, human; conditions: Homo sapiens, Fibroblast, GM03813 SMA Type 1 patient fibroblasts, 48 hours, HTRF; for maximal fold induction: 7-point concentration data, relative to vehicle, read-out: maximum fold (Fold) increase of Smn protein; for EC (1.5-fold): concentration producing 1.5 times Smn protein vs DMSO vehicle, read-out: EC1.5x for Smn protein expression
Outline: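 SMA patient fibroblasts (5,000/well) were exposed to a 7-point, 3.16-fold compound dilution series for 48 hours at 37° C, in triplicate. Lysates were read by HTRF with anti-SMN d2/kryptate at 665/620 nm. Blank-corrected signal was expressed as fold over DMSO vehicle, giving the EC1.5x and the maximum fold increase.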

[2] = test system: full length SMN2 minigene mRNA containing SMN2 exon 7 (SMN2-A minigene); test: SMN2 minigene mRNA splicing RT-qPCR assay in cultured cells; type: cell-based, human; conditions: Homo sapiens, HEK293-H; HEK293H cells stably transfected with SMN2-A minigene, 24 hours, 7-point concentration curve; concentration giving 1.5-fold SMN2 full length mRNA vs vehicle; read-out: EC1.5x for production of full length SMN2 mRNA
Outline: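 HEK293H cells stably carrying the SMN2-A minigene were treated 24 h at 37 °C with a 7-point, 3.16-fold test compound series, in duplicate. Multiplex RT-qPCR measured exon 7-containing minigene FL mRNA, normalized to GAPDH and expressed relative to vehicle; EC1.5x is the concentration giving 1.5-fold FL mRNA.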

Row | SMILES | melting point [°C] | maximal fold induction [1] | EC (1.5-fold) [1] [µM] | EC (1.5-fold) [2] [µM]
1 | Cc1csc(-c2cc(=O)c3cc(N4CCNCC4)ccc3o2)n1 [Cpd 76, 2-(4-methyl-1,3-thiazol-2-yl)-6-(piperazin-1-yl)-4H-chromen-4-one] | 179 to 182 | 1.5 to 1.65 | 1 to 3 | 0.3 to 1
2 | COc1ccc(-c2cc(=O)c3cc(N4CCN[C@@H](C)C4)ccc3o2)cc1C(F)(F)F [Cpd 71, 2-[4-methoxy-3-(trifluoromethyl)phenyl]-6-[(3S)-3-methylpiperazin-1-yl]-4H-chromen-4-one] | 182 to 184 | 1.35 to 1.5 | 3 to 10 | 0.1 to 0.3
3 | CC1(C)CN(c2ccc3oc(-c4cccnc4)cc(=O)c3c2)CCN1 [Cpd 10, 6-(3,3-dimethylpiperazin-1-yl)-2-(pyridin-3-yl)-4H-chromen-4-one] | 140 to 142 | 1.35 to 1.5 |  | 1 to 3
4 | COc1ccc(-c2cc(=O)c3cc(N4CCNCC4)ccc3o2)cc1C(F)(F)F [Cpd 69, 2-[4-methoxy-3-(trifluoromethyl)phenyl]-6-(piperazin-1-yl)-4H-chromen-4-one] | 128 to 132 | 1.35 to 1.5 |  | 0.3 to 1
5 | COc1ccc(-c2cc(=O)c3cc(N4CCN[C@@H](C)C4)ccc3o2)cc1OC [Cpd 31, 2-(3,4-dimethoxyphenyl)-6-[(3S)-3-methylpiperazin-1-yl]-4H-chromen-4-one] | 172 to 174 | > 1.65 | ≤ 0.3 | ≤ 0.1
6 | C[C@H]1CN(c2ccc3oc(-c4nc5ccccc5s4)cc(=O)c3c2)CCN1 [Cpd 36, 2-(1,3-benzothiazol-2-yl)-6-[(3S)-3-methylpiperazin-1-yl]-4H-chromen-4-one] | 140 to 142 | 1.5 to 1.65 | 1 to 3 | 0.3 to 1
7 | CC(C)Oc1ccc(-c2cc(=O)c3cc(N4CCNCC4)ccc3o2)cc1 [Cpd 49, 6-(piperazin-1-yl)-2-[4-(propan-2-yloxy)phenyl]-4H-chromen-4-one] | 126 to 128 | ≤ 1.2 |  | 1 to 3
8 | COc1ccc(-c2cc(=O)c3cc(N4CCNCC4)ccc3o2)cc1OC [Cpd 20, 2-(3,4-dimethoxyphenyl)-6-(piperazin-1-yl)-4H-chromen-4-one] | 177 to 179 | > 1.65 | 0.3 to 1 | ≤ 0.1

Second part, led by results:

Row | melting point [°C] | SMILES | maximal fold induction [1] | EC (1.5-fold) [1] [µM] | EC (1.5-fold) [2] [µM]
9 | 93 to 94 | CCOc1ccc(-c2cc(=O)c3cc(N4CCN[C@@H](C)C4)ccc3o2)cc1 [Cpd 42, 2-(4-ethoxyphenyl)-6-[(3S)-3-methylpiperazin-1-yl]-4H-chromen-4-one] | 1.2 to 1.35 |  | 0.3 to 1
10 | 164 to 166 | COc1ccc(-c2cc(=O)c3cc(N4CCN[C@H](C)C4)ccc3o2)cc1C [Cpd 54, 2-(4-methoxy-3-methylphenyl)-6-[(3R)-3-methylpiperazin-1-yl]-4H-chromen-4-one] | 1.2 to 1.35 |  | 0.3 to 1
11 | 92 to 94 | CCOc1ccc(-c2cc(=O)c3cc(N4CCN[C@H](C)C4)ccc3o2)cc1 [Cpd 44, 2-(4-ethoxyphenyl)-6-[(3R)-3-methylpiperazin-1-yl]-4H-chromen-4-one] | ≤ 1.2 |  | 1 to 3
